Data taken from patent US9707242B2, “Use of 25-hydroxyvitamin D3 to enhance executive functions” (DSM IP ASSETS B.V., priority 2013, dated 2017).

Experiments:
[1] = tested on: frail elderly; assay: Example 2: double-blind, randomized, placebo-controlled trial in the frail elderly; assay type: in vivo, human
Text: The design is a parallel group, randomized, placebo-controlled, double-blind study with three different application groups. Each group has an appropriate number of participants (e.g., 20 participants). Eligibility is defined as being 65 years or older and being frail or pre-frail. Frailty is defined as having unintentional weight loss, weakness, self-reported exhaustion, slow walking speed, and/or low physical activity (see Fried L P, et al. Frailty in older adults: evidence for a phenotype. J Gerontol A Biol Sci Med Sci. […] A participant is classified as pre-frail when one or two of the aforementioned criteria are met, while frail is classified when three or more criteria are present. […] The duration of supplementation is 6 months (180 days). […] Double-blind randomization is carried out by means of a label code associated with a specific participant ID number, whose meaning is known only to the supplier. Participants are allocated randomly to these numbers. […] For baseline (Day 0) the following tests are performed: […] […] Executive functioning test batteries include the following standard tests of executive functioning: Trail Making Tests A and B (to determine the ratio of TMT-B/TMT-A), Stroop Colour-Word Test, including determining the Stroop ratio, calculated by Stroop card 3/((Stroop card 1+Stroop card 2)/2) and animal fluency test. […]

[2] = tested on: healthy adults under 65; design: species or system human; conditions: in vivo
Text: The design is a parallel group, randomized, placebo-controlled, double-blind study similar to that of Example 2, above, except that the participants are healthy adults under 65. The duration of supplementation is 6 months (180 days). Group size is chosen so that a statistically significant difference, if present, may be observed between placebo and test groups.
Participants are randomly allocated to either the 25-OH D3 group, Vitamin D3 group, (Vitamin D3+25-OH D3) group or placebo group. Double-blind randomization is carried out by means of a label code associated with a specific participant ID number, whose meaning is known only to the supplier. Participants are allocated randomly to these numbers.
For baseline (Day 0) the following tests are performed: Physical examination, vital signs (blood pressure, heart rate), demographics, clinical laboratory, FFQ, serum: 25-OH D3, 24,25(OH)2D, 1,25(OH)2D3, Vitamin D3, calcium, albumin, creatinine, fasting glucose, PTH; urine: calcium, creatinine; executive function tests (see below). […]
Executive functioning test batteries include the following standard tests of executive functioning: Trail Making Tests A and B (to determine the ratio of TMT-B/TMT-A), Stroop Colour-Word Test, including determining the Stroop ratio, calculated by Stroop card 3/((Stroop card 1+Stroop card 2)/2) and animal fluency test. […]

`C=C1CC[C@H](O)C/C1=C/C=C1\CCC[C@]2(C)[C@@H]([C@H](C)CCCC(C)(C)O)CC[C@@H]12` [25(OH)D, 25-hydroxyvitamin D3] was tested, and the “improvement of executive functioning” value ([1]; frail elderly, 6 months, in comparison to Vitamin D3 and placebo) was “significantly higher effect”, the “25-OH D3 serum level” value ([1]; in vivo) was “significantly increases” and the “25-OH D serum level” value [2] was “significantly increases”.
